In PubChem BioAssay (NCI):
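Results reflect a 48-hour exposure of cells in 96-well plates to compound at five concentrations. Here, GI50 denotes the concentration required for 50% inhibition of growth. TGI marks complete inhibition of growth.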 Where a SMILES comes first, the peptide text is derived from it. The star is where a group is joined. Cbz = O=C(OCc1ccccc1)*; Bn = c1ccc(C*)cc1

Key:
Test in all cases: NCI tumour cell line growth inhibition, 48 h
ACHN renal = tested on: ACHN renal
HCC-2998 colon = tested on: HCC-2998 colon
HOP-62 NSCLC = tested on: HOP-62 NSCLC
K-562 leukemia = tested on: K-562 leukemia
M14 melanoma = tested on: M14 melanoma
NCI-H226 lung = tested on: NCI-H226 lung
SF-295 CNS = tested on: SF-295 CNS
SK-MEL-2 melanoma = tested on: SK-MEL-2 melanoma
SW-620 colon = tested on: SW-620 colon
UO-31 renal = tested on: UO-31 renal
XF 498 CNS = tested on: XF 498 CNS

SMILES | TGI (ACHN renal) | TGI (HCC-2998 colon) | TGI (HOP-62 NSCLC) | TGI (K-562 leukemia) | TGI (M14 melanoma) | TGI (NCI-H226 lung) | TGI (SF-295 CNS) | TGI (SK-MEL-2 melanoma) | TGI (SW-620 colon) | TGI (UO-31 renal) | TGI (XF 498 CNS) | GI50 (ACHN renal) | GI50 (NCI-H226 lung) | GI50 (SF-295 CNS) | GI50 (SW-620 colon) | GI50 (UO-31 renal) | GI50 (HCC-2998 colon) | GI50 (HOP-62 NSCLC) | GI50 (M14 melanoma) | GI50 (SK-MEL-2 melanoma)
O=C1c2cccc(O)c2C(=O)c2c(O)cccc21 | > 100 µM | > 100 µM | > 100 µM | > 100 µM | > 100 µM | > 100 µM | > 100 µM | > 100 µM | > 100 µM | > 100 µM | > 100 µM |  |  |  |  |  |  |  |  | 
CC1C[C@]2(C[C@@H](C)C(=O)O2)OC2CC3(C)C4CCC5C(C)(C)OC(=O)CC[C@@]56C[C@@]46CC[C@]3(C)C12 (stereo partly specified) | > 100 µM | > 100 µM |  | > 100 µM | > 100 µM | > 100 µM | > 100 µM | > 100 µM | > 100 µM |  | > 100 µM |  |  |  |  |  |  |  |  | 
C=CCOCCC(CC=C)C(=O)CC(=O)OC (stereo unspecified) | > 100 µM | > 100 µM | > 100 µM | > 100 µM | > 100 µM | > 100 µM | > 100 µM | > 100 µM | > 100 µM | > 100 µM | > 100 µM |  |  |  |  |  |  |  |  | 
COC(=O)C(Cc1ccc(O)cc1)NC(=O)C(COCc1ccccc1)NC(=O)OCc1ccccc1 (stereo unspecified) (Cbz-Ser(Bn)-Tyr-OMe; configuration not given here) | 31.2 µM | 17.3 µM | 33.6 µM | > 100 µM | 33.5 µM | 36.9 µM | 35.3 µM | 40.8 µM | 32.9 µM | 36.5 µM |  |  |  |  |  |  |  |  |  | 
C1CSCCSCSCCS1 | > 100 µM | > 100 µM | > 100 µM |  | > 100 µM | > 100 µM | > 100 µM | > 100 µM | > 100 µM | > 100 µM |  |  |  |  |  |  |  |  |  | 
c1ccc(-c2n(Cc3ccc4ccccc4c3)c3ccccc3[n+]2Cc2ccc3ccccc3c2)cc1 | 2.36 µM |  |  |  |  | 2.01 µM | 1.11 µM |  | 1.33 µM | 2.75 µM |  | 0.975 µM | 0.352 µM | 0.306 µM | 0.331 µM | 1.36 µM |  |  |  | 
NC(=O)c1ccc([N+](=O)[O-])cc1 |  | > 100 µM | > 100 µM | > 100 µM | > 100 µM | > 100 µM | > 100 µM | > 100 µM | > 100 µM | > 100 µM | > 100 µM |  |  |  |  |  |  |  |  | 
NC(CCP(=O)(O)O)C(=O)O (stereo unspecified) | > 100 µM |  | > 100 µM | > 100 µM | > 100 µM | > 100 µM | > 100 µM | > 100 µM | > 100 µM | > 100 µM |  |  |  |  |  |  |  |  |  | 
CCn1c(=O)c(C(=O)O)c(Cl)c2cc3c(cc21)OCO3 |  | > 100 µM | > 100 µM | > 100 µM |  | > 100 µM | > 100 µM | > 100 µM | > 100 µM | > 100 µM | > 100 µM |  |  |  |  |  |  |  |  | 
O=C(Nc1ccc(Cl)cc1)c1cc([N+](=O)[O-])ccc1O | > 100 µM | 8.98 µM | 9.26 µM | 13.1 µM | 18.9 µM | 12.6 µM | 30.4 µM | 11.3 µM | > 53.3 µM | 7.65 µM | 8.72 µM |  |  |  |  |  |  |  |  | 
COc1ccc(N2C(=O)/C(=C\c3ccccc3)SC2c2cc(OC)c(OC)c(OC)c2)cc1 (stereo unspecified) | > 100 µM | > 100 µM | > 100 µM | > 100 µM | > 100 µM | > 100 µM | > 100 µM | 75.9 µM |  | > 100 µM |  |  |  |  |  |  |  |  |  | 
COc1ccc(-c2oc3cc(OC(C)=O)cc(OC(C)=O)c3c(=O)c2OC)cc1 | 45.8 µM | 32.3 µM | 42.4 µM | 29.4 µM | 30.6 µM |  | 37.8 µM |  | 39.7 µM | 51.7 µM |  |  |  |  |  |  |  |  |  | 
N=C(N)c1ccc(-c2ccc(-c3ccc4ccccc4c3)s2)s1 | 6.66 µM | 4.48 µM | 5.24 µM |  | 5.72 µM | 79.2 µM | 5.99 µM | 5.7 µM | 3.52 µM | 4.49 µM |  | 2.53 µM | 33.6 µM | 2.27 µM | 1.91 µM | 1.97 µM | 2.02 µM | 2.08 µM | 2.45 µM | 2.52 µM
CS(=O)(=O)c1ccc2nc(-c3ccc(O)cc3)sc2c1 | 32.4 µM |  |  | > 100 µM | 38.4 µM | 36.6 µM | 30.3 µM | 36.3 µM | 38.4 µM | 28 µM |  |  |  |  |  |  |  |  |  | 
CC(=O)OCC1OC(NC(=O)N(CCCl)N=O)C(OC(C)=O)C(OC(C)=O)C1OC(C)=O (stereo unspecified) |  | > 100 µM | > 100 µM | > 100 µM |  |  | > 100 µM | > 100 µM | > 100 µM | > 100 µM | > 100 µM |  |  |  |  |  |  |  |  | 
C[n+]1c2ccccc2c(CNCC(=O)O)c2ccccc21 | 2.59 µM | 18.1 µM | 19.1 µM | 11.1 µM | 18.4 µM | 15.5 µM | 17.2 µM | 12.6 µM | 2.24 µM | 22.8 µM | 3.85 µM |  |  |  |  |  |  |  |  | 
